Converted amounts (≈) assume the structure as drawn. The source made the active and inactive calls. The rule behind the calls is not given here.
Key:
Type in all cases: functional
KB = assay: Cytotoxicity against human KB cells; settings: for EC50: read-out: ED50 (the source's name)
P388 [1] = assay: In vivo antitumor activity against mouse P388 cells at 25 mg/kg after 3 days
P388 [2] = assay: In vivo antitumor activity against mouse P388 cells at 200 mg/kg after 1 day

## O=c1ccc2nccc3c4ccccc4n1c23
KB
  Activity: inactive

## COc1cccc2c1c1c(OC)cnc3ccc(=O)n2c31
P388 [1]
  T/C: 122%
KB
  EC50: 1 µg/mL (≈ 3.57 µM)

## O=c1[nH]cc(F)c(=O)[nH]1 [FLUOROURACIL]
P388 [2]
  T/C: 135%

## O=c1ccc2nccc3c4c(O)cccc4n1c23
KB
  EC50: ≤ 4 µg/mL

From ChEMBL document CHEMBL1149009, “Antitumor agents, 79. Cytotoxic antileukemic alkaloids from Brucea antidysenterica” (1986)
